Source: EP0498899A1, “Use of N-(mercaptoacyl)-amino acids as dopaminergic und gonadoptropic medicaments” (Weth, Gosbert Dr. med., Dr. rer. nat., priority 1990, dated 1992)

Key:
[1] = system: Dopamin; assay: Determination of dopamine in blood plasma of patients after administration (method of G. Weth); format: in vivo, Patienten; conditions: for Dopamin MW: 25 mg Captopril, mean of 12 patients, value at time 0: 110
Description: (§1) Die Dopaminbestimmung wurde nach G. Weth, "Das Verhalten der Neurotransmitter....", Dissertation, Würzburg, 1987, S. 123-138, durchgeführt. Die Bestimmung von Prolaktin wurde radioimmunologisch nach den Methoden von P. Hwang, H. Guyda, H. Friesen, Proc. Nat. Sci. (USA) 1971, 68/8, S.1902-06 durchgeführt.
(§2) Für die Untersuchungen wurden 2x12 Patienten (Alter 75±10 Jahre), die unter Durchblutungsstörungen, sowohl peripheren als auch zentralen, litten, herangezogen. […]
Die Bestimmung der Dopamin- und Prolaktinwerte wurde wie folgt vorgenommen. In angegebenen Zeitabschnitten von 15, 30, 60 und 120 Minuten wurden dem Patienten je 5 ml Blut entnommen und in speziell präparierte Vakuum-Container, die Glutathion und EDTA enthielten, gegeben. Das Blut wurde sofort auf 2 °C abgekühlt und bei 2 °C zentrifugiert. Das überstehende Blutplasma wurde bis zur Dopamin- und Prolaktinbestimmung bei minus 80 °C tiefgefroren.
(§3) In den Tabellen sind die Ergebnisse der vorstehend angeführten pharmakologischen Untersuchungen zusammengestellt. Die Dimensionsangaben betragen für Dopamin pg/ml bzw. ng/l und für Prolaktin ng/ml.

[2] = system: Prolaktin; assay: Radioimmunological determination of prolactin in blood plasma of patients after administration; format: in vivo, Patienten; conditions: for Prolaktin MW: 25 mg Captopril, mean of 12 patients; for Prolaktinsenkung (Effekt): Fig. 2, result in words
Description: as §1, §2
Die Bestimmung der Dopamin- und Prolaktinwerte wurde wie folgt vorgenommen. […] Das Blut wurde sofort auf 2 °C abgekühlt und bei 2 °C zentrifugiert. Das überstehende Blutplasma wurde bis zur Dopamin- und Prolaktinbestimmung bei minus 80 °C tiefgefroren.
as §3

**Q.** Which “Höhepunkt des Anstiegs von Dopamin (time)” value ([1]; 25 mg Captopril oral per patient (mean weight 60 kg), Fig. 1) does the source give for `C[C@H](CS)C(=O)N1CCC[C@H]1C(=O)O` [Captopril] here?
**A.** Its value is roughly 60 min.

**Q.** What about the “Dopamin MW” value ([1]; 15 min after dosing) of the same molecule?
**A.** Its value is 163 pg/mL.

**Q.** What about the “Dopamin MW” value ([1]; 30 min after dosing) of the same molecule?
**A.** The value was 210 pg/mL.

**Q.** What about the “Dopamin MW” value ([1]; 60 min after dosing) of the same molecule?
**A.** Its value is 291 pg/mL.

**Q.** And the “Dopamin MW” value ([1]; 90 min after dosing)?
**A.** Its value is 250 pg/mL.

**Q.** What about the “Dopamin MW” value ([1]; 120 min after dosing) of the same molecule?
**A.** Its value is 211 pg/mL.

**Q.** What about the “Maximum der Dopaminfreisetzung (time)” value ([1]; 12,5 mg Captopril, Fig. 3) of the same molecule?
**A.** The value was 60 min.

**Q.** And the “Anstieg von Dopamin” value ([1]; 15 min after 25 mg Captopril oral per patient (mean weight 60 kg), Fig. 1, result in words)?
**A.** The value was “signifikanten Anstieg”.

**Q.** And the “Anstieg von Dopamin” value ([1]; 30 min after 25 mg Captopril, result in words)?
**A.** Its value is “hochsignifikanten Anstieg”.

**Q.** What about the “Anstieg (Dopaminfreisetzung)” value ([1]; 30 min after 12,5 mg Captopril, Fig. 3, result in words) of the same molecule?
**A.** The value was “signifikant”.

**Q.** What about the “Prolaktin MW” value ([2]; 15 min after dosing, value at time 0: 14,3) of the same molecule?
**A.** The value was 13,6 ng/ml.

**Q.** What about the “Prolaktin MW” value ([2]; 30 min after dosing, value at time 0: 14,8) of the same molecule?
**A.** Its value is 12,3 ng/ml.

**Q.** What about the “Prolaktin MW” value ([2]; 60 min after dosing, value at time 0: 14,8) of the same molecule?
**A.** The value was 9,0 ng/ml.

**Q.** And the “Prolaktin MW” value ([2]; 90 min after dosing, value at time 0: 14,8)?
**A.** The value was 8,4 ng/ml.

**Q.** And the “Prolaktin MW” value ([2]; 120 min after dosing, value at time 0: 14,8)?
**A.** Its value is 7,9 ng/ml.

**Q.** And the “Prolaktinsenkung (Effekt)” value ([2]; 15 min after 25 mg Captopril oral per patient (mean weight 60 kg))?
**A.** Its value is “signifikanter”.

**Q.** And the “Prolaktinsenkung (Effekt)” value ([2]; 60 min after 25 mg Captopril oral per patient (mean weight 60 kg))?
**A.** Its value is “hochsignifikanter”.
